Assay results published in BindingDB's records for PubMed 10869410 (Centre De Recherches De Croissy, 2000).
pKi: −log10 of the molar value. Values joined by “and” are separate entries in the source; they are usually repeats but may differ in a detail not shown here. Equal values may be shown once.

Columns and labels:
D(3) dopamine receptor = D(3) dopamine receptor (Homo sapiens, UniProt P35462)
[1] = target: T1, Alpha-2A adrenergic receptor [16-465] (Rattus norvegicus, UniProt P22909)
T1 construct: 16-465
T1 sequence (P22909 whole entry): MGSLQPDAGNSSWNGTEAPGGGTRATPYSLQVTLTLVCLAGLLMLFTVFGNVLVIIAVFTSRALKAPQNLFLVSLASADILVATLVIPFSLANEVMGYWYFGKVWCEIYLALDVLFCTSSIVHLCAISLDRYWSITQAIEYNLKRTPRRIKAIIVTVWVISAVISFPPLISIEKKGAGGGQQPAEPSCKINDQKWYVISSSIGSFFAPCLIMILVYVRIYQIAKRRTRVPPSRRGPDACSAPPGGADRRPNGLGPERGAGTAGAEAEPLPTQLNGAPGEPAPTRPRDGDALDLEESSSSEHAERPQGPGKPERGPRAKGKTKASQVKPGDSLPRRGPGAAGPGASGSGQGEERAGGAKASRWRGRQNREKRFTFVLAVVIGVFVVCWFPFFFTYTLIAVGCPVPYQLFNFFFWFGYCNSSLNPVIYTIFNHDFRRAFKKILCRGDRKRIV

[2] = target: 5-hydroxytryptamine receptor 2A (Rattus norvegicus, UniProt P14842)
Sequence of 5-hydroxytryptamine receptor 2A (Rattus norvegicus, UniProt P14842) (P14842 whole entry): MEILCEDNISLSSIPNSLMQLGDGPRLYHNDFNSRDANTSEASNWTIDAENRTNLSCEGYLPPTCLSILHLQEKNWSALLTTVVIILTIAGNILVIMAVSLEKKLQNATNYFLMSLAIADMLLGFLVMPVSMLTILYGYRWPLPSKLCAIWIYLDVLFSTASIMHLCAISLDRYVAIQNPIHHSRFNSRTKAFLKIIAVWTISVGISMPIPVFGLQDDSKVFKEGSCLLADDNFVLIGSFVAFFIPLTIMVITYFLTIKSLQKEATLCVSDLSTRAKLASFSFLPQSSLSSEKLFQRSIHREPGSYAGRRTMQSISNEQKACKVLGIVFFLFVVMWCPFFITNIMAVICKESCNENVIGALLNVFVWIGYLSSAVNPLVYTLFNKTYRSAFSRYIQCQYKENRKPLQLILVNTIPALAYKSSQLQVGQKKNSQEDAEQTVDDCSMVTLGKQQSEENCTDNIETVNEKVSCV

[3] = target: 5-hydroxytryptamine receptor 1B (Homo sapiens, UniProt P28222)
Sequence of 5-hydroxytryptamine receptor 1B (Homo sapiens, UniProt P28222) (P28222 whole entry): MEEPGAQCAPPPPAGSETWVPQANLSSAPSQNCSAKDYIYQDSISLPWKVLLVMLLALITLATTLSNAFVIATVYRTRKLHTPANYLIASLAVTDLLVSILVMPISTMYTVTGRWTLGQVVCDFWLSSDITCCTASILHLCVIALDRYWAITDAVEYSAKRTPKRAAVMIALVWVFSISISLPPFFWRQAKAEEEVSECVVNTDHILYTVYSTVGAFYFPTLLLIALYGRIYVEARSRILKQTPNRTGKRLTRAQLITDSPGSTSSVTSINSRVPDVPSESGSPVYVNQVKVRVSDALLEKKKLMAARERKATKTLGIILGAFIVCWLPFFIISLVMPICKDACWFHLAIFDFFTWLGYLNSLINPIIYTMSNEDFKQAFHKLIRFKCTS

[4] = target: 5-hydroxytryptamine receptor 1D (Homo sapiens, UniProt P28221)
Sequence of 5-hydroxytryptamine receptor 1D (P28221 whole entry): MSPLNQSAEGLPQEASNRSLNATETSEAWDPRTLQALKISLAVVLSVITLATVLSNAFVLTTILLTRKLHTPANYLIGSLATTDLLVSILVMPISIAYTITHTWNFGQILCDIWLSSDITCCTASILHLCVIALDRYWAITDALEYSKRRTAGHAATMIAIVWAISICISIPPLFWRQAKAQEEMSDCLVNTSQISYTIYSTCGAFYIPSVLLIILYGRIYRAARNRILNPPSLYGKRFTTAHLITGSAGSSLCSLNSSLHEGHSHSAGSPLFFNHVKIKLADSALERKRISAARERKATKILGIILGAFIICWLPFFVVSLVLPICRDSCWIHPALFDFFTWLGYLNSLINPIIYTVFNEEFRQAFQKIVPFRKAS

[5] = target: 5-hydroxytryptamine receptor 2B (Homo sapiens, UniProt P41595)
Sequence of 5-hydroxytryptamine receptor 2B (P41595 whole entry): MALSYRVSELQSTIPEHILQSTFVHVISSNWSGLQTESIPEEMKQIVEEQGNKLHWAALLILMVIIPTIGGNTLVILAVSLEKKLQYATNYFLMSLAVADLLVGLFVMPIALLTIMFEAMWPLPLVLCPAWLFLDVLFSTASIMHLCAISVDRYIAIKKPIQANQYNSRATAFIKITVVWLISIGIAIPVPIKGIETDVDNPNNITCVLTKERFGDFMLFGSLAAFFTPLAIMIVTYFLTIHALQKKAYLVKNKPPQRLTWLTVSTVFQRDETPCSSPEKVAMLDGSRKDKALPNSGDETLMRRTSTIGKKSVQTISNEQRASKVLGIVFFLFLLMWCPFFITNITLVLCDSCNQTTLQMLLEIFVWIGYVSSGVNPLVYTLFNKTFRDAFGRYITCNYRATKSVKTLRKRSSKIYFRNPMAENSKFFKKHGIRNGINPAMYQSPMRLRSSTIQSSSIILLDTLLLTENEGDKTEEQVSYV

[6] = target: T2, 5-hydroxytryptamine receptor 1A (Rattus norvegicus, UniProt P19327)
T2 sequence (P19327 whole entry): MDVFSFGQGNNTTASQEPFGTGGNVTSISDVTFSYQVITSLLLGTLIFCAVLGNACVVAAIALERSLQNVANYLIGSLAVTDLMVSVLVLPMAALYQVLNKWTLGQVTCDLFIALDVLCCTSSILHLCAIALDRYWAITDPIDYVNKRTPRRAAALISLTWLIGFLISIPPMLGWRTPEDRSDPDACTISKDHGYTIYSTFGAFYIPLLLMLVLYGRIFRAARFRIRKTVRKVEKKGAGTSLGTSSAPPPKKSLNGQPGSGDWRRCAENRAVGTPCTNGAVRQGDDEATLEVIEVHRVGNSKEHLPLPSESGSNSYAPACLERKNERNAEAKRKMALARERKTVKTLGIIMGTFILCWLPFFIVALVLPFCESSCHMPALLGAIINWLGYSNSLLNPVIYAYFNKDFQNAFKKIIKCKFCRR

D(2) dopamine receptor [7] = target: D(2) dopamine receptor (Rattus norvegicus, UniProt P61169)
Sequence of D(2) dopamine receptor (Rattus norvegicus, UniProt P61169) (P61169 whole entry): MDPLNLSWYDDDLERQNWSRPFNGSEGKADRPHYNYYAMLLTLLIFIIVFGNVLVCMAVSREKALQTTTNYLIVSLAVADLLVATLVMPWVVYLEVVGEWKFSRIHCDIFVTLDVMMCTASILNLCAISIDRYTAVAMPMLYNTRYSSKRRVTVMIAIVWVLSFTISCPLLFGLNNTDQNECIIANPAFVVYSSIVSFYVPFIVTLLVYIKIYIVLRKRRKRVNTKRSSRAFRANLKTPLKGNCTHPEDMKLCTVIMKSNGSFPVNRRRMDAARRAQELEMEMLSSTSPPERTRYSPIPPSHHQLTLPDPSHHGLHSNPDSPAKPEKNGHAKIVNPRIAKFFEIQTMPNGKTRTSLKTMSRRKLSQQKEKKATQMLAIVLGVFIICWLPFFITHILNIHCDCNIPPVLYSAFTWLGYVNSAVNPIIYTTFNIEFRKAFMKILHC

D(4) dopamine receptor = target: T3, D(4) dopamine receptor (Homo sapiens, UniProt P21917)
T3 sequence (P21917 whole entry): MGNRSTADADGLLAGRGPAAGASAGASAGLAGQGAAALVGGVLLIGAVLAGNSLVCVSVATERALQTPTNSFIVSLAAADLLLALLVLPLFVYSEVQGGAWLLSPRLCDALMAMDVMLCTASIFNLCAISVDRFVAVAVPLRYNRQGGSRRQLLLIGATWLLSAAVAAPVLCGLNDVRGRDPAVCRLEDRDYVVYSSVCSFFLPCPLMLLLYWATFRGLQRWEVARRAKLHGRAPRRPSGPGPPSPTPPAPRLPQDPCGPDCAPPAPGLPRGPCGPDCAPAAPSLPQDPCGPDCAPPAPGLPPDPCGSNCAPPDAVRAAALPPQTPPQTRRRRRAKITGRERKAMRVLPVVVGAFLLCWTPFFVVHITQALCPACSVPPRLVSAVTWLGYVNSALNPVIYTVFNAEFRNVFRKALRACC

[8] = target: T4, Alpha-1A adrenergic receptor (Rattus norvegicus, UniProt P43140)
T4 sequence (P43140 whole entry): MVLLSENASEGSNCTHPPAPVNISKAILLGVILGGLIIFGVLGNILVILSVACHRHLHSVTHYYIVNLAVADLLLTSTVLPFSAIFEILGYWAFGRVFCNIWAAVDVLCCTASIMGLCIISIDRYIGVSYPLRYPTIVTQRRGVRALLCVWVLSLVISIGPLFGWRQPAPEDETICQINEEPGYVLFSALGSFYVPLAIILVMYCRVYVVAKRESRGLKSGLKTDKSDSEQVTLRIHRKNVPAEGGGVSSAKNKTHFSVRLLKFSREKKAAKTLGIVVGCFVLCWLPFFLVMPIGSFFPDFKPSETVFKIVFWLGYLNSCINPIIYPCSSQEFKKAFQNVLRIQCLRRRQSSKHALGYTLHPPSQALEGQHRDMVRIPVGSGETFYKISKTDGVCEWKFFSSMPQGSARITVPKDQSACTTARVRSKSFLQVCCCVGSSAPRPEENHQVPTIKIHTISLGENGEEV

D(1B) dopamine receptor = D(1B) dopamine receptor (Homo sapiens, UniProt P21918)
Sequence of D(1B) dopamine receptor (P21918 whole entry): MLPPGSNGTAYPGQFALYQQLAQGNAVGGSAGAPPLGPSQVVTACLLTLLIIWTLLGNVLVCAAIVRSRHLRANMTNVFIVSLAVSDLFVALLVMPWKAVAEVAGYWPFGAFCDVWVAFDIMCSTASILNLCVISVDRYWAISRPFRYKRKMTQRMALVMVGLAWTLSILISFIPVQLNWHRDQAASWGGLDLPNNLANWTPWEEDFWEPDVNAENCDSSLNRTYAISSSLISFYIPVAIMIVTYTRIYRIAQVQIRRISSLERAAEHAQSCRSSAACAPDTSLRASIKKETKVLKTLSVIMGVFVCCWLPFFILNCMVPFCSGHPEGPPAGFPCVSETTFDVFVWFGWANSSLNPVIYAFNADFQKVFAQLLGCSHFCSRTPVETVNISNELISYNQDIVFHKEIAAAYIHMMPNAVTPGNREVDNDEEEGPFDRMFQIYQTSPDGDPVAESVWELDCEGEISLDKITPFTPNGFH

[9] = target: 5-hydroxytryptamine receptor 2C (Sus scrofa, UniProt G7ZKZ7)
[10] = target: 5-hydroxytryptamine receptor 2A (Homo sapiens, UniProt P28223)
Sequence of 5-hydroxytryptamine receptor 2A (Homo sapiens, UniProt P28223) (P28223 whole entry): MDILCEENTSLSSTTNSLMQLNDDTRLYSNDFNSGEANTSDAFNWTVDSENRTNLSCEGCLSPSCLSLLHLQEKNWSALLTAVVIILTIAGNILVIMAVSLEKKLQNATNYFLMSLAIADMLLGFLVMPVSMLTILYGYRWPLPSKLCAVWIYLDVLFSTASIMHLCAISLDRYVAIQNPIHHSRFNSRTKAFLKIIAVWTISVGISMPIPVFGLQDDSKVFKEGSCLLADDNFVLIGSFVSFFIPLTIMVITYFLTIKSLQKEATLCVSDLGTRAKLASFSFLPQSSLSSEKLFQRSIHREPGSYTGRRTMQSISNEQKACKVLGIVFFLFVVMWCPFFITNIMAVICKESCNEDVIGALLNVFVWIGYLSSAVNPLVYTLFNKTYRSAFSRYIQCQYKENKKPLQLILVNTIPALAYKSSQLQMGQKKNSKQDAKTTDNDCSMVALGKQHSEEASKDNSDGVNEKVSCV

[11] = target: Sigma non-opioid intracellular receptor 1 (Cavia porcellus, UniProt Q60492)
D(2) dopamine receptor [12] = target: D(2) dopamine receptor (Homo sapiens, UniProt P14416)
Sequence of D(2) dopamine receptor (Homo sapiens, UniProt P14416) (P14416 whole entry): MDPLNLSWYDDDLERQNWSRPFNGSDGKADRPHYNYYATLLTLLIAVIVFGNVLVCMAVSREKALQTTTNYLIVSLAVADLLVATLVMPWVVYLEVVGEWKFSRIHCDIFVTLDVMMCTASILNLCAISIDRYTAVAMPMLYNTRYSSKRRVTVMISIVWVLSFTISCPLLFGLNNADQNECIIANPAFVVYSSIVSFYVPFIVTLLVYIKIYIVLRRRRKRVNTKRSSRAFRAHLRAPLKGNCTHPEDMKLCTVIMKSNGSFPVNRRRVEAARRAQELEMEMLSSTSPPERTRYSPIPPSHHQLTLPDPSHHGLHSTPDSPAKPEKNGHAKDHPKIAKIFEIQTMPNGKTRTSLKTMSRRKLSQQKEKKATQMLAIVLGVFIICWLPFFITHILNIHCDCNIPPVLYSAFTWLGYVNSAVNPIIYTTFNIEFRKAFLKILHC

D(1A) dopamine receptor [13] = target: D(1A) dopamine receptor (Homo sapiens, UniProt P21728)
Sequence of D(1A) dopamine receptor (Homo sapiens, UniProt P21728) (P21728 whole entry): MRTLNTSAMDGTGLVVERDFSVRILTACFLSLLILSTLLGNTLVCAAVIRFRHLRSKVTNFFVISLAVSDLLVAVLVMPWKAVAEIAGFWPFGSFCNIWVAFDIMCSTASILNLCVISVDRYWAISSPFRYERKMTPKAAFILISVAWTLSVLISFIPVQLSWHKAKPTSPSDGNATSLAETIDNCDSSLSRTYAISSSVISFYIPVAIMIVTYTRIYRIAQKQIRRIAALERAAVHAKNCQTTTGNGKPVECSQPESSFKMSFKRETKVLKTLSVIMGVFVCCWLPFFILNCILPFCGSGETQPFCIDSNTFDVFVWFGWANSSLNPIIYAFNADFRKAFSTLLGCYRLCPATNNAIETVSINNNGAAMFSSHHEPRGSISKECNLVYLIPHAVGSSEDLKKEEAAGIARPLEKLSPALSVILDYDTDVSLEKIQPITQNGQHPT

[14] = target: 5-hydroxytryptamine receptor 2C (Homo sapiens, UniProt P28335)
Sequence of 5-hydroxytryptamine receptor 2C (Homo sapiens, UniProt P28335) (P28335 whole entry): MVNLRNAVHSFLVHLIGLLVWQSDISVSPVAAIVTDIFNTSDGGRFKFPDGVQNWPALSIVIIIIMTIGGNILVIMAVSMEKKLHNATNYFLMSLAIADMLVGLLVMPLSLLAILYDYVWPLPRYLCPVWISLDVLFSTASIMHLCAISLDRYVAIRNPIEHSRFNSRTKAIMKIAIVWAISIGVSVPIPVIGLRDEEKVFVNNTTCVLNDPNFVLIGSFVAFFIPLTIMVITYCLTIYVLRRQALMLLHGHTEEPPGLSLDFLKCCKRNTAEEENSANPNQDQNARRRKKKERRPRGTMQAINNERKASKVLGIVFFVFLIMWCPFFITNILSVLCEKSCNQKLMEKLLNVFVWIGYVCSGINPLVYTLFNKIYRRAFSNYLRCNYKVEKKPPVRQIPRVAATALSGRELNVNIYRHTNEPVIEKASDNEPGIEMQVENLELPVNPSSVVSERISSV

[15] = target: 5-hydroxytryptamine receptor 1A (Homo sapiens, UniProt P08908)
[16] = target: 5-hydroxytryptamine receptor 3A (Homo sapiens, UniProt P46098)
[17] = target: Muscarinic acetylcholine receptor M1 (Homo sapiens, UniProt P11229)
[18] = target: 5-hydroxytryptamine receptor 1B (Cavia porcellus, UniProt O08892)
D(1A) dopamine receptor [19] = target: D(1A) dopamine receptor (Rattus norvegicus, UniProt P18901)

Sequence of D(3) dopamine receptor (P35462 as listed by the source): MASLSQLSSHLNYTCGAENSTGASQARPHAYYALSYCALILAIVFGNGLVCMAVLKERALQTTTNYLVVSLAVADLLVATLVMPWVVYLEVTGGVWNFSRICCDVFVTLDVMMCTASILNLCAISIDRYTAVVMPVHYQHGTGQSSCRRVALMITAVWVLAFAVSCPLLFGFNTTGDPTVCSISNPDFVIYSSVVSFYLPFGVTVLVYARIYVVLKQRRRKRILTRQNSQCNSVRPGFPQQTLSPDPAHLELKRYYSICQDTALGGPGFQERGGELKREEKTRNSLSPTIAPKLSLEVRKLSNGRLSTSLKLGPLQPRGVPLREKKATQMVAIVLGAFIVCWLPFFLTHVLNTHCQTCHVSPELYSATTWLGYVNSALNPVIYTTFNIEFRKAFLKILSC

OC1(c2ccc(Cl)cc2)CCN(Cc2c[nH]c3ccccc23)CC1 [L741,626]
pKi (D(3) dopamine receptor): 7.20 and 7.06
pKi [1]: 5.90
pKi [2]: 6.00
pKi [3]: 6.00
pKi [4]: 6.00
pKi [5]: 6.20
pKi [6]: 5.40
pKi (D(2) dopamine receptor [7]): 8.20
pKi (D(4) dopamine receptor): 6.50
pKi [8]: 6.60
pKi (D(1B) dopamine receptor): 6.20
pKi [9]: 5.40

CCCN(CCC)C1CCc2cc(CS(=O)(=O)c3ccc(OC)cc3)ccc2C1 (stereo not given) [GR218231]
pKi (D(3) dopamine receptor): 9.00 and 8.87
pKi [10]: 6.00
pKi [1]: 6.40
pKi [2]: 6.00
pKi [3]: 6.00
pKi [4]: 6.00
pKi [5]: 6.00
pKi [6]: 6.30
pKi (D(2) dopamine receptor [7]): 7.10
pKi [11]: 6.80
pKi (D(4) dopamine receptor): < 5.00
pKi (D(2) dopamine receptor [12]): 7.20 and 6.86
pKi [8]: 6.00
pKi (D(1A) dopamine receptor [13]): 6.00
pKi (D(1B) dopamine receptor): 6.00
pKi [9]: 6.00
pKi [14]: 6.00

N#Cc1ccc2c(c1)[C@H]1CN(CCCCNC(=O)c3ccc(-c4ccccc4)cc3)C[C@@H]1CO2 [S33084]
pKi (D(3) dopamine receptor): 9.60 and 9.40
pKi [15]: 6.00
pKi [10]: 6.00
pKi [1]: 6.00
pKi [2]: 6.00
pKi [3]: 6.10
pKi [4]: 6.90
pKi [5]: 6.80
pKi [6]: 6.90
pKi (D(2) dopamine receptor [7]): 7.30
pKi [11]: 6.00
pKi (D(4) dopamine receptor): 5.70
pKi [16]: 6.00
pKi (D(2) dopamine receptor [12]): 7.28
pKi [8]: 6.90
pKi (D(1A) dopamine receptor [13]): 6.30
pKi (D(1B) dopamine receptor): 5.90
pKi [17]: 6.40
pKi [18]: 6.00
pKi (D(1A) dopamine receptor [19]): 6.00
pKi [14]: 7.10
